These compounds were tested against T1, hPARG (Homo sapiens, UniProt Q86W56) (assay: PARG enzymatic activity assay (HTRF)). Conditions: C-terminal His6-tag hPARG 65 pM, biotinylated-NAD ribosylated PARP1 substrate 8 nM.
T1 construct: made in house; host or cells: E. coli
Type: biochemical
Procedure: HTRF assay was used to measure the ability of compounds to inhibit the activity of […] in vitro. C-terminal His6—tag PARG expressed in E. coli was purified and stored at −80° C. in aliquots. Assay measurements were performed with 1×buffer comprising 50 mM Tris pH 7.4, 0.1 mg/mL BSA, 3 mM EDTA, 0.4 mM EGTA, 1 mM DTT, 50 mM KCl and 0.01% Tween 20. Compounds dissolved in DMSO were plated into a 384-well assay plate (PerkinElmer, Catalog #: 6008280) in duplicate using a dispenser (Labcyte, Echo 665), and tested on a 10-point 4-fold serial dilution. Add 5 μL Enzyme mix [hPARG (C-terminal His6—tag, 4.2 μM), 65 pM final] to the test wells. The plates were covered and left to incubate for 60 minutes at RT before the addition of 5 μL substrate mix [biotinylated-NAD ribosylated PARP1 (6.1 μM), 8 nM final] to initiate reaction. After incubating 10 minutes at RT, add 2.5 μL Streptavidin-Eu cryptate (Cisbio, Catalog #: 610SAKLA) and 2.5 μL Mab anti 6HIS-XL665 (Cisbio, Catalog #: 61HISXLA) to the plate, and incubate for 60 minutes at RT. Read on a multimode plate reader (PerkinElmer, Envision 2015) in time-resolved fluorescence (TRF) mode, with excitation at 337 nm and emission at both 620 nm and 665 nm. Average HTRF signal of high control (Wells with 1% DMSO) was calculated and as Vehicle Control (VC). Average HTRF signal of low control (no Enzyme) was calculated and as Positive control (PC).
IC50 values were determined by fitting the data to the standard 4 parameters with Hill Slope using GraphPad Prism software.

T1 sequence (Q86W56 whole entry): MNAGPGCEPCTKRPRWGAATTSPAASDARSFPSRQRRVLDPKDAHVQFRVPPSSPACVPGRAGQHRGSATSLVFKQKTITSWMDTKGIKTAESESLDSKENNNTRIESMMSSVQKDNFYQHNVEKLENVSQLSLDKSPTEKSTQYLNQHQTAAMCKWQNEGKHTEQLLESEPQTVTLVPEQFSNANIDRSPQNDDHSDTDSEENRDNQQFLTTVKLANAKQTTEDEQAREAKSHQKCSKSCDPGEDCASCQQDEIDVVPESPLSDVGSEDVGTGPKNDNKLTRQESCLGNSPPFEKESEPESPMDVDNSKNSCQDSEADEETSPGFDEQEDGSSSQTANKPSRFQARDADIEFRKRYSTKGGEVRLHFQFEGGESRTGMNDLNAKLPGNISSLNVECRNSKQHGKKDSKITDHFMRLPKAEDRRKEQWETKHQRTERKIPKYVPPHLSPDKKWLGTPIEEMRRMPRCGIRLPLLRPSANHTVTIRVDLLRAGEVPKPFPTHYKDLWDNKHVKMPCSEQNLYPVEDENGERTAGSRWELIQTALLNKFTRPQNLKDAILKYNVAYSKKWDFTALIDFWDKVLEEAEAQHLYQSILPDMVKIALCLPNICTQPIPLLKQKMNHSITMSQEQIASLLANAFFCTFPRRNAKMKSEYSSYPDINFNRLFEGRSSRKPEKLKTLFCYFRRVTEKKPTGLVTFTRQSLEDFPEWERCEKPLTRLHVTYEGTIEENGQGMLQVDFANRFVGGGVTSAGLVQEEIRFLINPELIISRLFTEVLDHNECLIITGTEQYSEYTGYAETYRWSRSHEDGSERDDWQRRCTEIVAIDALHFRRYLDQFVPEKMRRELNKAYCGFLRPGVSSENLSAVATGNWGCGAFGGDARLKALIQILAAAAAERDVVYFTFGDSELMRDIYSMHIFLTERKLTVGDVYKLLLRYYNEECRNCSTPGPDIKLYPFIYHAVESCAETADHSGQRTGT

SMILES	IC50 [µM]
N#CC1(NS(=O)(=O)c2ccc3c4c(OCCN5CCOCC5)ncnc4n(-c4nnc(C(F)F)s4)c3c2)CC1 [Example 1, N-(1-Cyanocyclopropyl)-9-(5-(difluoromethyl)-1,3,4-thiadiazol-2-yl)-4-(2-morpholinoethoxy)-9H-pyrimido[4,5-b]indole-7-sulfonamide]	≤ 0.1
N#CC1(NS(=O)(=O)c2ccc3c4c(OCCCN5CCOCC5)ncnc4n(-c4nnc(C(F)F)s4)c3c2)CC1 [Example 2, N-(1-Cyanocyclopropyl)-9-(5-(difluoromethyl)-1,3,4-thiadiazol-2-yl)-4-(3-morpholinopropoxy)-9H-pyrimido[4,5-b]indole-7-sulfonamide]	≤ 0.1
N#CC1(NS(=O)(=O)c2ccc3c4c(OCCCCN5CCOCC5)ncnc4n(-c4nnc(C(F)F)s4)c3c2)CC1 [Example 3, N-(1-Cyanocyclopropyl)-9-(5-(difluoromethyl)-1,3,4-thiadiazol-2-yl)-4-(4-morpholinobutoxy)-9H-pyrimido[4,5-b]indole-7-sulfonamide]	≤ 0.1
CC(C)C(=O)N1CCN(CCOc2ncnc3c2c2ccc(S(=O)(=O)NC4(C#N)CC4)cc2n3-c2nnc(C(F)F)s2)CC1 [Example 4, N-(1-Cyanocyclopropyl)-9-(5-(difluoromethyl)-1,3,4-thiadiazol-2-yl)-4-(2-(4-isobutyrylpiperazin-1-yl)ethoxy)-9H-pyrimido[4,5-b]indole-7-sulfonamide]	≤ 0.1
CN(C)C(=O)N1CCN(CCOc2ncnc3c2c2ccc(S(=O)(=O)NC4(C#N)CC4)cc2n3-c2nnc(C(F)F)s2)CC1 [Example 5, 4-(2-((7-(N-(1-Cyanocyclopropyl)sulfamoyl)-9-(5-(difluoromethyl)-1,3,4-thiadiazol-2-yl)-9H-pyrimido[4,5-b]indol-4-yl)oxy)ethyl)-N,N-dimethylpiperazine-1-carboxamide]	≤ 0.1
CN(C)C(=O)COc1ncnc2c1c1ccc(S(=O)(=O)NC3(C#N)CC3)cc1n2-c1nnc(C(F)F)s1 [Example 6, 2-((7-(N-(1-Cyanocyclopropyl)sulfamoyl)-9-(5-(difluoromethyl)-1,3,4-thiadiazol-2-yl)-9H-pyrimido[4,5-b]indol-4-yl)oxy)-N,N-dimethylacetamide]	0.1 to 1
N#CC1(NS(=O)(=O)c2ccc3c4c(O[C@H]5CCOC5)ncnc4n(-c4nnc(C(F)F)s4)c3c2)CC1 [Example 7, (S)-N-(1-Cyanocyclopropyl)-9-(5-(difluoromethyl)-1,3,4-thiadiazol-2-yl)-4-((tetrahydrofuran-3-yl)oxy)-9H-pyrimido[4,5-b]indole-7-sulfonamide]	≤ 0.1
N#CC1(NS(=O)(=O)c2ccc3c4c(O[C@@H]5CCOC5)ncnc4n(-c4nnc(C(F)F)s4)c3c2)CC1 [Example 8, (R)-N-(1-Cyanocyclopropyl)-9-(5-(difluoromethyl)-1,3,4-thiadiazol-2-yl)-4-((tetrahydrofuran-3-yl)oxy)-9H-pyrimido[4,5-b]indole-7-sulfonamide]	≤ 0.1
N#CC1(NS(=O)(=O)c2ccc3c4c(OCC5CCOC5)ncnc4n(-c4nnc(C(F)F)s4)c3c2)CC1 (stereo not shown) [Example 9, N-(1-Cyanocyclopropyl)-9-(5-(difluoromethyl)-1,3,4-thiadiazol-2-yl)-4-((tetrahydrofuran-3-yl)methoxy)-9H-pyrimido[4,5-b]indole-7-sulfonamide]	≤ 0.1
CCN(CC)CCOc1ncnc2c1c1ccc(S(=O)(=O)NC3(C#N)CC3)cc1n2-c1nnc(C(F)F)s1 [Example 10, N-(1-Cyanocyclopropyl)-4-(2-(diethylamino)ethoxy)-9-(5-(difluoromethyl)-1,3,4-thiadiazol-2-yl)-9H-pyrimido[4,5-b]indole-7-sulfonamide]	≤ 0.1
N#CC1(NS(=O)(=O)c2ccc3c4c(OCC(=O)N5CCOCC5)ncnc4n(-c4nnc(C(F)F)s4)c3c2)CC1 [Example 11, N-(1-Cyanocyclopropyl)-9-(5-(difluoromethyl)-1,3,4-thiadiazol-2-yl)-4-(2-morpholino-2-oxoethoxy)-9H-pyrimido[4,5-b]indole-7-sulfonamide]	≤ 0.1
N#CC1(NS(=O)(=O)c2ccc3c4c(OCCn5cccn5)ncnc4n(-c4nnc(C(F)F)s4)c3c2)CC1 [Example 12, 4-(2-(1H-Pyrazol-1-yl)ethoxy)-N-(1-cyanocyclopropyl)-9-(5-(difluoromethyl)-1,3,4-thiadiazol-2-yl)-9H-pyrimido[4,5-b]indole-7-sulfonamide]	≤ 0.1
CN(CCN1CCOCC1)c1ncnc2c1c1ccc(S(=O)(=O)NC3(C#N)CC3)cc1n2-c1nnc(C(F)F)s1 [Example 13, N-(1-cyanocyclopropyl)-9-(5-(difluoromethyl)-1,3,4-thiadiazol-2-yl)-4-(methyl(2-morpholinoethyl)amino)-9H-pyrimido[4,5-b]indole-7-sulfonamide]	≤ 0.1
CN(C)c1ncnc2c1c1ccc(S(=O)(=O)NC3(C#N)CC3)cc1n2-c1nnc(C(F)F)s1 [Example 14, N-(1-Cyanocyclopropyl)-9-(5-(difluoromethyl)-1,3,4-thiadiazol-2-yl)-4-(dimethylamino)-9H-pyrimido[4,5-b]indole-7-sulfonamide]	≤ 0.1
CCN(CC)CCN(C)c1ncnc2c1c1ccc(S(=O)(=O)NC3(C#N)CC3)cc1n2-c1nnc(C(F)F)s1 [Example 15, N-(1-Cyanocyclopropyl)-4-((2-(diethylamino)ethyl)(methyl)amino)-9-(5-(difluoromethyl)-1,3,4-thiadiazol-2-yl)-9H-pyrimido[4,5-b]indole-7-sulfonamide]	≤ 0.1
N#CC1(NS(=O)(=O)c2ccc3c4c(NCCN5CCOCC5)ncnc4n(-c4nnc(C(F)F)s4)c3c2)CC1 [Example 16, N-(1-Cyanocyclopropyl)-9-(5-(difluoromethyl)-1,3,4-thiadiazol-2-yl)-4-((2-morpholinoethyl)amino)-9H-pyrimido[4,5-b]indole-7-sulfonamide]	≤ 0.1
CN(CCCN1CCOCC1)c1ncnc2c1c1ccc(S(=O)(=O)NC3(C#N)CC3)cc1n2-c1nnc(C(F)F)s1 [Example 17, N-(1-Cyanocyclopropyl)-9-(5-(difluoromethyl)-1,3,4-thiadiazol-2-yl)-4-(methyl(3-morpholinopropyl)amino)-9H-pyrimido[4,5-b]indole-7-sulfonamide]	≤ 0.1
CCN(CCN1CCOCC1)c1ncnc2c1c1ccc(S(=O)(=O)NC3(C#N)CC3)cc1n2-c1nnc(C(F)F)s1 [Example 18, N-(1-Cyanocyclopropyl)-9-(5-(difluoromethyl)-1,3,4-thiadiazol-2-yl)-4-(ethyl(2-morpholinoethyl)amino)-9H-pyrimido [4,5-b]indole-7-sulfonamide]	≤ 0.1
CN(CC(=O)O)c1ncnc2c1c1ccc(S(=O)(=O)NC3(C#N)CC3)cc1n2-c1nnc(C(F)F)s1 [Example 19, N-(7-(N-(1-Cyanocyclopropyl)sulfamoyl)-9-(5-(difluoromethyl)-1,3,4-thiadiazol-2-yl)-9H-pyrimido[4,5-b]indol-4-yl)-N-methylglycine]	≤ 0.1
CN(CC(=O)N1CCOCC1)c1ncnc2c1c1ccc(S(=O)(=O)NC3(C#N)CC3)cc1n2-c1nnc(C(F)F)s1 [Example 20, N-(1-Cyanocyclopropyl)-9-(5-(difluoromethyl)-1,3,4-thiadiazol-2-yl)-4-(methyl(2-morpholino-2-oxoethyl)amino)-9H-pyrimido[4,5-b]indole-7-sulfonamide]	≤ 0.1
CN(Cc1ccncc1)c1ncnc2c1c1ccc(S(=O)(=O)NC3(C#N)CC3)cc1n2-c1nnc(C(F)F)s1 [Example 21, N-(1-Cyanocyclopropyl)-9-(5-(difluoromethyl)-1,3,4-thiadiazol-2-yl)-4-(methyl(pyridin-4-ylmethyl)amino)-9H-pyrimido[4,5-b]indole-7-sulfonamide]	≤ 0.1
CN(Cc1ccccn1)c1ncnc2c1c1ccc(S(=O)(=O)NC3(C#N)CC3)cc1n2-c1nnc(C(F)F)s1 [Example 22, N-(1-Cyanocyclopropyl)-9-(5-(difluoromethyl)-1,3,4-thiadiazol-2-yl)-4-(methyl(pyridin-2-ylmethyl)amino)-9H-pyrimido[4,5-b]indole-7-sulfonamide]	0.1 to 1
CN(CC1CCOC1)c1ncnc2c1c1ccc(S(=O)(=O)NC3(C#N)CC3)cc1n2-c1nnc(C(F)F)s1 (stereo not shown) [Example 23, N-(1-Cyanocyclopropyl)-9-(5-(difluoromethyl)-1,3,4-thiadiazol-2-yl)-4-(methyl((tetrahydrofuran-3-yl)methyl)amino)-9H-pyrimido[4,5-b]indole-7-sulfonamide]	≤ 0.1
CN(CCn1cccn1)c1ncnc2c1c1ccc(S(=O)(=O)NC3(C#N)CC3)cc1n2-c1nnc(C(F)F)s1 [Example 24, 4-((2-(1H-Pyrazol-1-yl)ethyl)(methyl)amino)-N-(1-cyanocyclopropyl)-9-(5-(difluoromethyl)-1,3,4-thiadiazol-2-yl)-9H-pyrimido[4,5-b]indole-7-sulfonamide]	0.1 to 1
CSc1ncnc2c1c1ccc(S(=O)(=O)NC3(C#N)CC3)cc1n2-c1nnc(C(F)F)s1 [Example 25, N-(1-cyanocyclopropyl)-9-(5-(difluoromethyl)-1,3,4-thiadiazol-2-yl)-4-(methylthio)-9H-pyrimido[4,5-b]indole-7-sulfonamide]	≤ 0.1
